# Data published in patent publication US11345676B2, “Apoptosis signal-regulating kinase 1 (ASK 1) inhibitor compounds” (PHARMAKEA, INC., priority 2017, dated 2022).
# Structures can show the parent of a compound that is named as a salt.
# Legend:
# ASK1 = ASK1 (Homo sapiens (Human), UniProt Q99683); assay: Human ASK1 ADP-Glo kinase assay; format: biochemical; details: recombinant ASK1 (amino acids 649-946), 50 μM ATP, MBP substrate
# Procedure: Example B-1: Human ASK1 ADP-Glo Assay
# The ability of test compounds to inhibit ASK1 kinase activity was determined using the luminescent ADP-Glo™ Kinase Assay and Myelin Basic Protein (MBP) as a substrate (Promega Corporation, Madison, Wis.). During the kinase reaction, ASK1 utilizes ATP and generates ADP. The remaining ATP is then depleted by addition of the ADP-Glo™ reagent which also terminates the reaction. Subsequent addition of the Kinase Detection Reagent converts the ADP that was produced during the kinase reaction to ATP, and this newly synthesized ATP is converted to light using the luciferase/luciferin reactions. The assay was performed according to the manufacturer's instructions. Briefly, purified, recombinant ASK1 (amino acids 649-946) (10-20 ng/well) was added to a 384-well, F bottom, small volume, HIbase, white plate (Greiner Bio-One, Monroe, N.C. #784075) containing 1-2 μL 5× test compound or vehicle control (diluted 1:20 from a 100% DMSO stock solution into 1× Reaction Buffer A). The enzyme was allowed to pre-incubate with test compound from 15-120 min at 30° C. before the addition of the ATP/substrate mix (final concentrations of 50 μM ATP+250 ng MBP in 1× Reaction Buffer A). The mixture was then incubated at room temperature for 40 min before the addition of ADP-Glo™ reagent and a second 40 minute room temperature incubation. Following the addition of the Kinase Detection Reagent, the plate was incubated for an additional 40 min at room temperature before reading luminescence on a FlexStation 3 (Molecular Devices, Sunnyvale, Calif.). Maximum activity was determined from wells treated with vehicle and was set to 100% and minimum activity was determined from wells containing no enzyme and this was set to 0%. Percent inhibition was calculated relative to the controls and the data graphed in Collaborative Drug Discovery (CDD) Vault (Burlingame, Calif.).
# human LOXL2 = human LOXL2 (Homo sapiens (Human), UniProt Q9Y4K0); assay: Human LOXL2 amine oxidase activity assay (Amplex Red); format: biochemical; details: concentrated conditioned media from CHO cells expressing human LOXL2, 2 h preincubation at 37° C., DAP substrate
# Procedure: Example B-2: Human LOXL2 Amine Oxidase Activity Assay
# LOXL2 amine oxidase activity was evaluated by measuring Amplex Red fluorescence using 10-20× concentrated conditioned media from CHO cells stably expressing human LOXL2. To assay for amine oxidase activity, 10 μL of the concentrated conditioned media was incubated with 2 μL of test compound in DMSO and 73 μL Assay Buffer (50 mM Borate Buffer, pH8) for 2 h at 37° C. After the 2 h incubation, 5 μL of 10 mM 1,5-Diaminopentane (DAP) diluted in Assay Buffer and 10 μL of Amplex Red Mix (8.5 μL Assay Buffer+0.5 μL of 10 mM Amplex Red+1 μL of 500 U/ml Horseradish Peroxidase) were added and the plate mixed and immediately placed on the FlexStation for fluorescence measurements. Fluorescence was read in kinetic mode every 2 min for 0.5-1 hour at excitation=544 and emission=590. The amine oxidase activity was calculated from the slope of the linear portion of the curve. Wells containing vehicle (DMSO) represented maximum activity and were set to 0% inhibition and wells containing 100 μM βAPN (3-aminopropionitrile) represented no activity and were set to 100% inhibition.
# Chain of human LOXL2 (Q9Y4K0 26-774): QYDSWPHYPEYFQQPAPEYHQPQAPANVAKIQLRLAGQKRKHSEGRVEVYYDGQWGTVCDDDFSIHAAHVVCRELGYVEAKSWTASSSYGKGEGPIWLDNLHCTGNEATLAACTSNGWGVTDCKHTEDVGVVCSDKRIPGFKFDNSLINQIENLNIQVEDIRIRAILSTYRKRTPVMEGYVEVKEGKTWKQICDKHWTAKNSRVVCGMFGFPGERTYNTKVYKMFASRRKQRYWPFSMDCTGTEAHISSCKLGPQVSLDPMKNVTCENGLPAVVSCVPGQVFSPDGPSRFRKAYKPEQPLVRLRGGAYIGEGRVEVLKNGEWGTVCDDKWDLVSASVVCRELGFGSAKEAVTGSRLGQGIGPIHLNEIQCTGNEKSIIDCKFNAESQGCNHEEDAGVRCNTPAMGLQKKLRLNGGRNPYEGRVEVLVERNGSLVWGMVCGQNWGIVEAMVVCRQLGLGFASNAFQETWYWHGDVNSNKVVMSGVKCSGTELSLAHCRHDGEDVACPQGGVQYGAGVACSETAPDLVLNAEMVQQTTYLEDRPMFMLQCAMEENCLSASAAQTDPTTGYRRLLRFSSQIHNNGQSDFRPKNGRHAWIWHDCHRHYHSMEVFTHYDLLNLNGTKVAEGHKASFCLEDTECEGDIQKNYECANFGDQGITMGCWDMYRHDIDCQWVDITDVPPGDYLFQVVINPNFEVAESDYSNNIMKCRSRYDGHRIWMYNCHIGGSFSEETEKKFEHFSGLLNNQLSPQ
# Chain of ASK1 (Q99683 649-946): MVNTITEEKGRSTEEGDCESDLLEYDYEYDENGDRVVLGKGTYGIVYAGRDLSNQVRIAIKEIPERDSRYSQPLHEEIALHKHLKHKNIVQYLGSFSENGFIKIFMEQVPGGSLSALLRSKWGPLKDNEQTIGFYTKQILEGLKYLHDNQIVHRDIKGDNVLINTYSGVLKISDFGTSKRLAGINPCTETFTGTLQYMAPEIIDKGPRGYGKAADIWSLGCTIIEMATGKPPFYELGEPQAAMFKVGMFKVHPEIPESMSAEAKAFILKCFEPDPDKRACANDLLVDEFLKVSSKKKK
IC50 (ASK1) [nM],IC50 (human LOXL2) [nM],Structure (SMILES)
< 300,> 1000,"CC(C)n1cnnc1-c1cccc(NC(=O)c2cc(NC(=O)c3ccc(CN)cc3)ccc2F)n1 [Compound 1-306, 5-(4-(Aminomethyl)benzamido)-2-fluoro-N-(6-(4-isopropyl-4H-1,2,4-triazol-3-yl)pyridin-2-yl)benzamide hydrochloride]"
< 300,< 300,"NCc1cc(Oc2ccnc(C(=O)Nc3cccc(-c4nncn4C4CC4)n3)c2)nc(C(F)(F)F)c1 [Compound 1-330, 4-((4-(Aminomethyl)-6-(trifluoromethyl)pyridin-2-yl)oxy)-N-(6-(4-cyclopropyl-4H-1,2,4-triazol-3-yl)pyridin-2-yl)picolinamide hydrochloride]"
< 300,< 300,"CC(C)n1cnnc1-c1cccc(NC(=O)c2cccc(Oc3cc(CN)cc(C(F)(F)F)n3)c2)n1 [Compound 1-331, 3-((4-(Aminomethyl)-6-(trifluoromethyl)pyridin-2-yl)oxy)-N-(6-(4-isopropyl-4H-1,2,4-triazol-3-yl)pyridin-2-yl)benzamide hydrochloride]"
